This note sets out measurements from patent publication US7713994B2 (Wyeth LLC, priority 2005, dated 2010).

The target in series [1] is T1, cyclin D1/cdk 4 enzyme (Homo sapiens, UniProt P11802).
T1 construct: made in house; host or cells: Sf9 insect cells, recombinant baculovirus
The series can be described thus: CDK4 ELISA kinase assay (phospho-Rb ser 795 detection). It counts as biochemical. The method, boiled down: (§1)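 Wells were coated overnight with GST-Rb C-terminal fragment, then blocked. Compound (10 ug/ml final) and cyclin/CDK enzyme from baculovirus-infected Sf9 cells with 200 μM ATP reacted 1 h at 30° C. Ser795 phosphorylation was detected by ELISA at 450 nm.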
On the technique in general: An ELISA detects its analyte on a solid surface through an enzyme-linked reagent.

Series [2] addresses T2, cyclin E/CDK2 enzyme (Homo sapiens, UniProt P24941).
T2 construct: made in house; host or cells: Sf9 insect cells, recombinant baculovirus
Description: CDK2 ELISA kinase assay (phospho-Rb ser 795 detection). It counts as biochemical. In a few lines:
as §1

Series [3] has as its system MCF-7. Description: Cytotoxicity assay (SRB), MCF-7. It counts as cell-based. The conditions noted are these: Homo sapiens, MCF7, 72 h, MCF-7 cells, SRB, read-out: In Vitro Cellular Activity IC50 MCF-7. The method, boiled down: (§2)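 Percentage survival is derived from SRB absorbance (540 nm) versus untreated cells. Exposures were 3 days, except 6 days for BT474, at 37 °C and 7% CO2.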

In series [4] the test system is BT474. Description: Cytotoxicity assay (SRB), BT474. The class given is cell-based. The method, boiled down: as §2
The subject of series [5] is HCT-116. The series can be described thus: Cytotoxicity assay (SRB), HCT-116. It counts as cell-based. The note with it: Homo sapiens, HCT-116, 72 h, HCT116 cells, SRB, read-out: In Vitro Cellular Activity IC50 HCT116. In a few lines: as §2
For series [6], the target named is T3, Cyclin D1/CDK6 (Homo sapiens, UniProt Q00534).
T3 construct: made in house; host or cells: Sf9 insect cells, recombinant baculovirus
The series can be described thus: Cyclin D1/CDK6 Elisa. The class given is biochemical. The note with it: 200 μM ATP. As for the experimental part: Cyclin D1/CDK6 was expressed in insect cells (Sf9) infected with recombinant baculovirus and partially purified using ammonium sulfate fractionation. Test compounds were diluted in 20% DMSO/20 mM HEPES, pH 7.5 and serial dilutions were prepared (5 concentrations; 0.005-50 µM). High-binding ELISA microtiter plates (Costar) were coated with the kinase substrate (glutathione-S-transferase (GST) fusion of C-terminal fragment of the retinoblastoma susceptibility gene product (Rb). Non-specific binding sites were blocked with Superblock in Tris-buffered saline (TBS; Pierce). Kinase reactions contained the test inhibitor, 200 μM ATP, 0.5 mg/ml bovine serum albumin (BSA; Sigma), and 0.1 μl cyclin D1/cdk 6. Reaction volumes were adjusted to 30 μl with kinase assay buffer (50 mM HEPES, pH 7.5, 10 mM MgCl2, 5% glycerol, 10 mM 2-mercaptoethanol), and plates were incubated at 30° C. for 1 hour. Reactions were terminated by aspiration, and non-specific sites were blocked with blocking buffer (TBS containing 0.1% Tween-20 and 5% nonfat dry milk). Phoshporylation of the substrate was detected using phospho-Rb specific antibodies (ser-795) (Cell Signalling Technologies) and anti-rabbit IgG/horseradish peroxidase conjugates (Amersham Life Science) using TMB as substrate. Colourimetric reactions were stopped with 2N sulphuric acid and the absorbance was measured at 450 nm (Molecular Devices). IC50 values were determined from inhibition plots.

Series [7] concerns LoVo. The series can be described thus: Cytotoxicity assay (SRB), LoVo. It counts as cell-based. The conditions noted are these: Homo sapiens, LoVo, 72 h, LoVo cells, SRB, read-out: In Vitro Cellular Activity IC50 LOVO. The method, boiled down: as §2
Series [8] has as its target T4, cyclin B/CDK1 enzyme (Homo sapiens, UniProt P06493).
T4 construct: purchased New England BioLabs; host or cells: Sf9 insect cells, recombinant baculovirus
The series can be described thus: CDK1 ELISA kinase assay (phospho-Rb ser 795 detection). It counts as biochemical. The method, boiled down:
as §1

The test system of series [9] is SK-UT-1B. The series can be described thus: Cytotoxicity assay (SRB), SK-UT-1B. The class given is cell-based. The conditions noted are these: Homo sapiens, Skut1B; SK-UT-1B cells; read-out: In Vitro Cellular Activity IC50 SK-UT-1B.
For series [10], the system named is SK-Br-3. Description: Cytotoxicity assay (SRB), SK-Br-3. The conditions noted are these: Homo sapiens; SK-Br-3 cells; read-out: In Vitro Cellular Activity IC50 SK-Br-3. The class given is cell-based.
Setting [11] is: In Vitro Enzyme Assays, 200 μM ATP, read-out: CDK4 IC50.
Where [12] appears, read: In Vitro Enzyme Assays, read-out: CDK2 IC50.
[13] abbreviates: Homo sapiens, BT-474, 144 h, BT474 cells, SRB, 6 days; read-out: In Vitro Cellular Activity IC50 BT474.
Setting [14] is: In Vitro Enzyme Assays, read-out: CDK1 IC50.
Setting [15] is: In Vitro Enzyme Assay, cyclin E/CDK2, read-out: CDK2 IC50.
Where [16] appears, read: Homo sapiens, BT-474, 144 h, BT474 cells, 6 days, SRB; read-out: In Vitro Cellular Activity IC50 BT474.
Setting [17] is: In Vitro Enzyme Assay, cyclin D1/cdk 4, read-out: CDK4 IC50.
Where [18] appears, read: In Vitro Enzyme Assay, cyclin B/CDK1, read-out: CDK1 IC50.

Like-named read-outs stand apart in the source and are kept apart here. Bounds are passed on as bounds.

T1 sequence (P11802 whole entry, species assumed): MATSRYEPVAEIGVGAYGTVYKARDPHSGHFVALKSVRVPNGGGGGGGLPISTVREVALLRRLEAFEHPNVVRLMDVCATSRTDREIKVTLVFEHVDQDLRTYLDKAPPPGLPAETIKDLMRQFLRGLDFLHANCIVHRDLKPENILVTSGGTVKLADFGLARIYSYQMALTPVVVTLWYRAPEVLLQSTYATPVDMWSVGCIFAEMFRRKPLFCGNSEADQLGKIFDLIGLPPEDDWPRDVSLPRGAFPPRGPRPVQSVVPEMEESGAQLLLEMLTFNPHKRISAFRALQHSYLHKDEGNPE
T1 sequence (P24385 whole entry partner, species assumed): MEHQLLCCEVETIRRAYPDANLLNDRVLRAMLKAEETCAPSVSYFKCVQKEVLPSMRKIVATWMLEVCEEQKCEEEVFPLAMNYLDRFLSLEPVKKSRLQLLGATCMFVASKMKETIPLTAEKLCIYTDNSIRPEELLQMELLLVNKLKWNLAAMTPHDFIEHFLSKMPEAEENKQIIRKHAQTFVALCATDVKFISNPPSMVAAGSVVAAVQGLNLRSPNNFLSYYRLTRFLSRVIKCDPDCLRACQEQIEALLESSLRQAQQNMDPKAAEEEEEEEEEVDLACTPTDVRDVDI
T4 sequence (P06493 whole entry): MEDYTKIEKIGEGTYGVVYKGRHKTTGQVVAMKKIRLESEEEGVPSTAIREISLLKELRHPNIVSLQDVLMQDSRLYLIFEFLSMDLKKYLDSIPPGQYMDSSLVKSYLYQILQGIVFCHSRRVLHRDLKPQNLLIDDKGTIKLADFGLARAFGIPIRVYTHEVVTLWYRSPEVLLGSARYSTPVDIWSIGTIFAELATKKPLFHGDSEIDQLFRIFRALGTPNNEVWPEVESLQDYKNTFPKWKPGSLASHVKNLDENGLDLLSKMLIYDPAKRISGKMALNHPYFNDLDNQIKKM
T4 sequence (P14635 whole entry partner): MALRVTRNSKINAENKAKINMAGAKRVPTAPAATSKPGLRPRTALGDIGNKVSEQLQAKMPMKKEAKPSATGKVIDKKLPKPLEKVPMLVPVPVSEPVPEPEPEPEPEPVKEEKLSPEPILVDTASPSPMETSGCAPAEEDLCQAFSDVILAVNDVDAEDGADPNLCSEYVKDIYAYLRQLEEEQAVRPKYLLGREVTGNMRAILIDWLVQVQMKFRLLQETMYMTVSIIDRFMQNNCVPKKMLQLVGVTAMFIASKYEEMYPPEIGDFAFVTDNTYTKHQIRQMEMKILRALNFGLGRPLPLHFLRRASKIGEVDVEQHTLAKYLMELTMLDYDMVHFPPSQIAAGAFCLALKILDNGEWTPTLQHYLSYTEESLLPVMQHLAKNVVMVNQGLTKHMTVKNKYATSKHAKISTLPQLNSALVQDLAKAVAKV
T3 sequence (Q00534 whole entry, species assumed): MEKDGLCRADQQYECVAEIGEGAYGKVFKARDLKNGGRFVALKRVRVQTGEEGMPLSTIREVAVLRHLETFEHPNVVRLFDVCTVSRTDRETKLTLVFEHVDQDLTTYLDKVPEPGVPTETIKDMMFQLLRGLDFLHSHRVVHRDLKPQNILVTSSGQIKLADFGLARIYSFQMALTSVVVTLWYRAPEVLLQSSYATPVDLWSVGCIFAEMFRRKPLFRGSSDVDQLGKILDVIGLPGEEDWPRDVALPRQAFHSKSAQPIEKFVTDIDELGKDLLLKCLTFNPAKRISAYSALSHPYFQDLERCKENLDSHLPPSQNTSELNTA
T3 sequence (P24385 whole entry partner, species assumed): as the sequence (P24385 whole entry partner, species assumed) above

For `O=C1NC(=O)c2ccc(I)cc2/C1=C/Nc1ccc(CN2CCCCC2)cc1` [Example 82, (4Z)-6-Iodo-4-({[4-(piperidin-1-ylmethyl)phenyl]amino}methylene)isoquinoline-1,3(2H,4H)-dione], the melting point fell in the range of 202 to 203 °C. For the same compound, in series [1] (setting [11]), the 50% inhibitory concentration (IC50) came out at 0.3 µM. Further, the IC50 in [2] (setting [12]) was 20.4 µM. The IC50 in series [3] (three days) is 1 µM. Moreover, in series [4] (setting [13]), the IC50 was found to be 0.6 µM. For the same compound, the half-maximal inhibitory concentration (IC50) in series [5] (three days) is 2.7 µM. In [6], the IC50 worked out at 0.03 µM. The IC50 in series [7] (three days) worked out at 3.1 µM. Besides, the IC50 in series [8] (setting [14]) is greater than 50 µM.
`O=C1NC(=O)c2ccc(Cl)cc2/C1=C/Nc1ccc(CN2CCCCC2)cc1` [Example 55, (4Z)-6-Chloro-4-({[4-(piperidin-1-ylmethyl)phenyl]amino}methylene)isoquinoline-1,3(2H,4H)-dione]: the melting point fell in the range of 225 to 226 °C. The IC50 in [1] (setting [11]) stood at 2.5 µM. Further, the IC50 in [2] (setting [12]) was greater than 50 µM. For the same compound, the IC50 in [3] (three days) worked out at 7 µM. The IC50 in series [4] (setting [13]) stood at 11 µM. The IC50 in series [5] (three days) was 5.7 µM. This compound also yielded an IC50 in series [6] of 0.12 µM. In addition, the IC50 in series [7] (three days) worked out at 7.7 µM. The IC50 in series [8] (setting [14]) was greater than 50 µM.
The compound `COc1ccc(CN/C=C2\C(=O)NC(=O)c3ccc(-n4cccc4)cc32)cc1O` [Example 71] had a melting point of 252 to 253 °C. Besides, the IC50 in series [1] (setting [11]) worked out at 0.004 µM. Also, the IC50 in series [3] (three days) turned out to be 7.8 µM. Moreover, the IC50 in series [4] (setting [13]) was 3.8 µM. The IC50 in series [5] (three days) was found to be 4.7 µM. Further, the IC50 in series [6] was determined as 0.001 µM. The IC50 in [7] (three days) was 3 µM. Also, the IC50 in [8] (setting [14]) came to 9.7 µM.
`O=C1NC(=O)c2ccc(-n3cccc3)cc2/C1=C/Nc1ccc(CN2CCCCC2)cc1` [Example 74] yielded a melting point of 207 to 208 °C. For the same compound, the IC50 in series [3] (three days) was 2.1 µM. The IC50 in [4] (setting [13]) came to 3.3 µM. Moreover, the IC50 in series [5] (three days) stood at 2.7 µM. This compound registered an IC50 in [6] of 0.02 µM. Moreover, the IC50 in [7] (three days) came out at 2.4 µM. Moreover, the concentration for half-maximal inhibition (IC50) in series [8] (setting [14]) is greater than 50 µM.
As to `O=C1NC(=O)c2ccccc2/C1=C/NCc1ccc(O)c(O)c1` [Example 550, 4-[(3,4-Dihydroxy-benzylamino)-methylene]-4H-isoquinoline-1,3-dione], the IC50 in [9] was determined as 17.3 µM; in [2] (setting [15]) it was 12.5 µM; in series [3] (3 days) it was 39.1 µM; in series [4] (setting [16]) it was 36.5 µM; in [5] (3 days) it was 26.6 µM; in series [7] (3 days), 46.5 µM. Further, the IC50 in series [10] is 32.4 µM.
In turn, `COc1cc(CN/C=C2\C(=O)NC(=O)c3ccc(-c4ccccc4)cc32)cc(O)c1OC` [Example 86] showed a melting point of 250 to 251 °C. In addition, the IC50 in series [1] (setting [11]) was 0.002 µM. The IC50 in series [2] (setting [12]) is greater than 50 µM. Moreover, the IC50 in series [3] (three days) stood at 5.1 µM. For the same compound, in [4] (setting [13]), the IC50 came out at 3.2 µM. Besides, in series [5] (three days), the IC50 turned out to be 4.5 µM. This compound also showed an IC50 in series [6] of 0.001 µM. The IC50 in [7] (three days) is 3.7 µM. Moreover, the IC50 in series [8] (setting [14]) is greater than 50 µM.
In the case of `O=C1NC(=O)c2ccccc2C1=CNc1ccc(O)c2ncccc12` [Example 569, 4-[(8-Hydroxy-quinolin-5-ylamino)-methylene]-4H-isoquinoline-1,3-dione], the IC50 was determined as 11.2 µM in series [1] (setting [17]); 2.2 µM in series [9]; 6.2 µM in series [2] (setting [15]); 7.2 µM in [3] (3 days); 14.1 µM in series [4] (setting [16]); 7.1 µM in series [5] (3 days). For the same compound, the IC50 in series [7] (3 days) is greater than 50 µM; in [10], 8.9 µM; in series [8] (setting [18]) it was 34.8 µM.
Regarding `COc1ccc(CN/C=C2\C(=O)NC(=O)c3cccc(Br)c32)cc1O` [Example 84, (4Z)-5-Bromo-4-{[(3-hydroxy-4-methoxybenzyl)amino]methylene}isoquinoline-1,3(2H,4H)-dione], the melting point is 204 to 206 °C. The IC50 in series [1] (setting [11]) was 0.94 µM. Also, the IC50 in [2] (setting [12]) came out at 3.1 µM. In addition, the IC50 in series [3] (three days) is 6.7 µM. Moreover, the IC50 in [4] (setting [13]) was found to be 2.1 µM. Further, the IC50 in [5] (three days) is 3.1 µM. In series [6], this compound had an IC50 of 0.07 µM. Moreover, the IC50 in series [7] (three days) was found to be 4.6 µM. Further, in series [8] (setting [14]), the IC50 is 8.1 µM.
With `CN1CCN(c2ccc(N/C=C3\C(=O)NC(=O)c4ccc(I)cc43)cc2)CC1` [Example 81, (4Z)-6-Iodo-4-({[4-(4-methylpiperazin-1-yl)phenyl]amino}methylene)isoquinoline-1,3(2H,4H)-dione], the IC50 in series [1] (setting [11]) was 0.48 µM; in [2] (setting [12]), greater than 50 µM; in series [4] (setting [13]), 2.8 µM; in [6] it was 0.1 µM; in series [7] (three days) it was 5.1 µM; in series [8] (setting [14]) it was greater than 50 µM.
On to `Nc1ccc(NC=C2C(=O)NC(=O)c3ccccc32)cc1` [Example 545, 4-[(4-Amino-phenylamino)-methylene]-4H-isoquinoline-1,3-dione], for which the IC50 in series [1] (setting [17]) was 17.9 µM; in [9], 38.9 µM; in [2] (setting [15]) it was 2.5 µM; in [3] (3 days), greater than 50 µM; in series [4] (setting [16]), greater than 50 µM; in series [5] (3 days) it was 40.1 µM. In addition, the IC50 in [7] (3 days), in series [10] and in series [8] (setting [18]) was greater than 50 µM each time.
On to `COc1cc(CN/C=C2\C(=O)NC(=O)c3ccc(Br)cc32)cc(O)c1OC` [compound 78], for which the IC50 is 0.007 µM in series [1] (setting [11]); greater than 50 µM in series [2] (setting [12]); 32.5 µM in [3] (three days); 42 µM in series [4] (setting [13]); greater than 50 µM in series [5] (three days); 0.002 µM in series [6]. Also, the IC50 in [7] (three days) and in series [8] (setting [14]) was greater than 50 µM throughout.
On to `COc1ccc(CN/C=C2\C(=O)NC(=O)c3ccc(I)cc32)cc1O` [Example 80, (4Z)-6-Iodo-4-{[(3-hydroxy-4-methoxybenzyl)amino]methylene}isoquinoline-1,3(2H,4H)-dione], for which the IC50 in series [1] (setting [11]) stood at 0.01 µM; in [2] (setting [12]), 0.87 µM; in series [3] (three days) it was 3.7 µM; in series [4] (setting [13]), 1.7 µM; in [5] (three days) it was 2 µM; in series [6], 0.002 µM. Besides, the IC50 came to 1.5 µM in [7] (three days) and 6 µM in series [8] (setting [14]).

The IC50 is the concentration needed to halve the response being measured. For orientation: melting point means the temperature of the solid-liquid transition.
